Numbers after ± are expanded uncertainties.
Assay: mn = molality of the nth substance listed, in mol/kg
Conditions: 101 kPa, Liquid, Alternating current cell with electrodes

C[N+](C)(C)CCO.O=C([O-])C(F)(F)C(F)(F)C(F)(F)C(F)(F)C(F)(F)C(F)(F)C(F)(F)F [(2-hydroxyethyl)trimethylammonium perfluorooctanoate] + O
Conditions	electrical conductivity [S/m]
303.15 K, m1 = 0.003487	0.0256 ± 0.0015
303.15 K, m1 = 0.003599	0.0264 ± 0.0016
303.15 K, m1 = 0.003701	0.0271 ± 0.0016
303.15 K, m1 = 0.003815	0.0279 ± 0.0017
303.15 K, m1 = 0.003911	0.0285 ± 0.0017
303.15 K, m1 = 0.004027	0.0293 ± 0.0018
303.15 K, m1 = 0.004122	0.03 ± 0.0018
303.15 K, m1 = 0.004288	0.0311 ± 0.0019
303.15 K, m1 = 0.004393	0.0318 ± 0.0019
303.15 K, m1 = 0.004492	0.0325 ± 0.002
303.15 K, m1 = 0.004585	0.0331 ± 0.002
303.15 K, m1 = 0.004679	0.0337 ± 0.002
303.15 K, m1 = 0.004785	0.0345 ± 0.0021
308.15 K, m1 = 6.9e-05	0.0006 ± 0.0001
308.15 K, m1 = 0.000131	0.0012 ± 0.0001
308.15 K, m1 = 0.000188	0.0016 ± 0.0001
308.15 K, m1 = 0.000233	0.002 ± 0.0001
308.15 K, m1 = 0.000278	0.0024 ± 0.0002
308.15 K, m1 = 0.000329	0.0029 ± 0.0002
308.15 K, m1 = 0.000372	0.0032 ± 0.0002
308.15 K, m1 = 0.000407	0.0035 ± 0.0002
308.15 K, m1 = 0.000451	0.0039 ± 0.0002
308.15 K, m1 = 0.000486	0.0043 ± 0.0003
308.15 K, m1 = 0.000545	0.0048 ± 0.0003
308.15 K, m1 = 0.000576	0.0051 ± 0.0003
308.15 K, m1 = 0.000628	0.0055 ± 0.0003
308.15 K, m1 = 0.000669	0.0059 ± 0.0004
308.15 K, m1 = 0.000706	0.0062 ± 0.0004
308.15 K, m1 = 0.000758	0.0067 ± 0.0004
308.15 K, m1 = 0.000796	0.007 ± 0.0004
308.15 K, m1 = 0.000831	0.0073 ± 0.0004
308.15 K, m1 = 0.000864	0.0076 ± 0.0005
308.15 K, m1 = 0.0009	0.0079 ± 0.0005
308.15 K, m1 = 0.000934	0.0082 ± 0.0005
308.15 K, m1 = 0.000981	0.0087 ± 0.0005
308.15 K, m1 = 0.001026	0.0091 ± 0.0005
308.15 K, m1 = 0.00106	0.0094 ± 0.0006
308.15 K, m1 = 0.001098	0.0097 ± 0.0006
308.15 K, m1 = 0.001138	0.0101 ± 0.0006
308.15 K, m1 = 0.001211	0.0107 ± 0.0006
308.15 K, m1 = 0.001265	0.0112 ± 0.0007
308.15 K, m1 = 0.001299	0.0114 ± 0.0007
308.15 K, m1 = 0.001362	0.012 ± 0.0007
308.15 K, m1 = 0.001397	0.0123 ± 0.0007
308.15 K, m1 = 0.001445	0.0127 ± 0.0008
308.15 K, m1 = 0.0015	0.0132 ± 0.0008
308.15 K, m1 = 0.001539	0.0136 ± 0.0008
308.15 K, m1 = 0.001701	0.015 ± 0.0009
308.15 K, m1 = 0.001808	0.0159 ± 0.001
308.15 K, m1 = 0.001958	0.0173 ± 0.001
308.15 K, m1 = 0.002148	0.0189 ± 0.0011
308.15 K, m1 = 0.002371	0.0209 ± 0.0013
308.15 K, m1 = 0.0025	0.022 ± 0.0013
308.15 K, m1 = 0.002602	0.0229 ± 0.0014
308.15 K, m1 = 0.002723	0.0239 ± 0.0014
308.15 K, m1 = 0.00288	0.0253 ± 0.0015
308.15 K, m1 = 0.003015	0.0265 ± 0.0016
308.15 K, m1 = 0.003126	0.0274 ± 0.0016
308.15 K, m1 = 0.00328	0.0287 ± 0.0017
308.15 K, m1 = 0.003401	0.0297 ± 0.0018
308.15 K, m1 = 0.003526	0.0308 ± 0.0018
308.15 K, m1 = 0.003657	0.0319 ± 0.0019
308.15 K, m1 = 0.003764	0.0328 ± 0.002
308.15 K, m1 = 0.003883	0.0337 ± 0.002
308.15 K, m1 = 0.003991	0.0346 ± 0.0021
308.15 K, m1 = 0.004106	0.0356 ± 0.0021
308.15 K, m1 = 0.00422	0.0365 ± 0.0022
308.15 K, m1 = 0.004341	0.0375 ± 0.0023
308.15 K, m1 = 0.004478	0.0386 ± 0.0023
308.15 K, m1 = 0.004597	0.0396 ± 0.0024
308.15 K, m1 = 0.004723	0.0405 ± 0.0024
313.15 K, m1 = 0.000143	0.0013 ± 0.0001
313.15 K, m1 = 0.000274	0.0026 ± 0.0002
313.15 K, m1 = 0.000394	0.0038 ± 0.0002
313.15 K, m1 = 0.000543	0.005 ± 0.0003
313.15 K, m1 = 0.00064	0.006 ± 0.0004
313.15 K, m1 = 0.000773	0.0073 ± 0.0004
313.15 K, m1 = 0.000904	0.0087 ± 0.0005
313.15 K, m1 = 0.001044	0.0101 ± 0.0006
313.15 K, m1 = 0.001221	0.012 ± 0.0007
313.15 K, m1 = 0.001372	0.0134 ± 0.0008
313.15 K, m1 = 0.001554	0.0149 ± 0.0009
313.15 K, m1 = 0.001697	0.0164 ± 0.001
313.15 K, m1 = 0.001835	0.0178 ± 0.0011
313.15 K, m1 = 0.002088	0.02 ± 0.0012
313.15 K, m1 = 0.002327	0.0222 ± 0.0013
313.15 K, m1 = 0.002528	0.0242 ± 0.0015
313.15 K, m1 = 0.002879	0.0274 ± 0.0016
313.15 K, m1 = 0.003226	0.0306 ± 0.0018
313.15 K, m1 = 0.003438	0.0318 ± 0.0019
313.15 K, m1 = 0.003602	0.0333 ± 0.002
313.15 K, m1 = 0.003774	0.035 ± 0.0021
313.15 K, m1 = 0.004014	0.037 ± 0.0022
313.15 K, m1 = 0.00417	0.0382 ± 0.0023
313.15 K, m1 = 0.004352	0.0397 ± 0.0024
313.15 K, m1 = 0.004528	0.0415 ± 0.0025
313.15 K, m1 = 0.004708	0.043 ± 0.0026
313.15 K, m1 = 0.004876	0.0446 ± 0.0027
313.15 K, m1 = 0.005072	0.0463 ± 0.0028
313.15 K, m1 = 0.005237	0.0477 ± 0.0029
